Assay results: publication PMC10018501 (ACS Omega, 2023)
“And” between values parts separate entries of the source, which are not always exact repeats. Equal entries are not always repeated. Where two headings read alike, the source gives them in different places.

Legend:
hBACE-1 = hBACE-1 (Homo sapiens, UniProt P56817); experiment: biochemical
hBChE = hBChE (Equus caballus, UniProt P81908); experiment: In vitro hBChE inhibition assay; format: biochemical, human
hAChE = hAChE (Homo sapiens, UniProt P22303); experiment: In vitro hAChE inhibition assay; format: biochemical; conditions: for selectivity index hBChE/hAChE: IC50 of hBChE/IC50 of hAChE
Chain of hAChE (P22303 32-617 isoform P22303-2 limits assumed): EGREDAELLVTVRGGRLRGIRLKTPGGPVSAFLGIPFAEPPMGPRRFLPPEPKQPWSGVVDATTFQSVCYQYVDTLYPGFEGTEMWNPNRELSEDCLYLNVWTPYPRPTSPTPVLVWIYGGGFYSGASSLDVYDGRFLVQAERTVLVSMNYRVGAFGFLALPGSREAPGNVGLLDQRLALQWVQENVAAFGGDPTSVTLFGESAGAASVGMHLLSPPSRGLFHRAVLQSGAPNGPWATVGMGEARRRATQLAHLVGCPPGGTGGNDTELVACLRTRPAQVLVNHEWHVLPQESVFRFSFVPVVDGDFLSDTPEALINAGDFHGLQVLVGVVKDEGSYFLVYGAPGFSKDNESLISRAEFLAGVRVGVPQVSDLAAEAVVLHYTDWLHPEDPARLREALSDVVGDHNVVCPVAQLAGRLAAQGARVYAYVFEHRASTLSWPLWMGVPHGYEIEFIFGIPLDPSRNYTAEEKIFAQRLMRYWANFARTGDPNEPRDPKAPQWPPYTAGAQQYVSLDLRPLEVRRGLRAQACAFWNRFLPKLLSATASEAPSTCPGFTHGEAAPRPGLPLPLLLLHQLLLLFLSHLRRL

Aβ1–42 = Aβ1–42 (Homo sapiens, UniProt P05067); experiment: Self-induced Aβ aggregation inhibition thioflavin T assay; format: biochemical; conditions: compound 5, 10 and 20 μM; Aβ 10 μM
Chain of Aβ1–42 (P05067 672-713): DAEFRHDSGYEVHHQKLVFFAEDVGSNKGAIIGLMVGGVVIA

[1] = system: ICV Aβ1–42-induced rat model; experiment: Aβ-induced Morris water maze test; conditions: SD-6 10 mg/kg, donepezil 5 mg/kg, orally 9 days; vs Aβ group
[2] = system: scopolamine-induced rat model; experiment: Scopolamine-induced Y-maze test; format: in vivo, Wistar rats; conditions: SD-6 2.5, 5, 10 mg/kg p.o.; donepezil 5 mg/kg p.o.; 7 days; vs scopolamine group
[3] = target: PAS-AChE (hAChE-PAS region) (Homo sapiens, UniProt P22303); experiment: Propidium iodide displacement assay; format: binding
Chain of PAS-AChE (hAChE-PAS region) (P22303 32-617 isoform P22303-2 limits assumed): as the sequence (P22303 32-617 isoform P22303-2 limits assumed) above

[4] = n = 3, mean ± SEM
in vitro = conditions: PAMPA, pH 7.4
[5] = system: differentiated SH-SY5Y cells; experiment: Neurotoxicity estimation; format: cell-based; conditions: 10, 20, 40 and 80 μM, 24 h
Aβ1–42 with hAChE = Aβ1–42 with hAChE (Homo sapiens, UniProt P22303); experiment: hAChE-induced Aβ aggregation inhibition thioflavin T assay; format: biochemical; conditions: compound 5, 10 and 20 μM; Aβ 10 μM
Chain of Aβ1–42 with hAChE (P22303 32-588 isoform P22303-2): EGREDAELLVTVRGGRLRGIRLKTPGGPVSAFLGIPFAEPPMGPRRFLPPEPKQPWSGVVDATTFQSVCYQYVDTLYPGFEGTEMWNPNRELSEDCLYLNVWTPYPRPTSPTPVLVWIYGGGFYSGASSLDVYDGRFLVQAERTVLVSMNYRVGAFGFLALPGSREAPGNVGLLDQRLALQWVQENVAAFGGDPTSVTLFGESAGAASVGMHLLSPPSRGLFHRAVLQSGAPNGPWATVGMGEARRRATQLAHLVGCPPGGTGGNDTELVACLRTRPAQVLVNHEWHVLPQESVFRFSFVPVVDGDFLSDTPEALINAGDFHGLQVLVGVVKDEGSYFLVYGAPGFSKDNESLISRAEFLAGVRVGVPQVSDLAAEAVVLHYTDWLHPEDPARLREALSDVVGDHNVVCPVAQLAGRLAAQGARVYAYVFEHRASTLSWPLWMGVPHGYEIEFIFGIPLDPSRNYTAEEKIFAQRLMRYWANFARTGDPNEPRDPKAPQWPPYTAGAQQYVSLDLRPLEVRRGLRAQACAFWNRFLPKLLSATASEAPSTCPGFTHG

[6] = system: nondifferentiated SH-SY5Y cells; experiment: Neuroprotective estimation; format: cell-based; conditions: Homo sapiens, 24 h, read-out: cell viability
[7] = hAChE inhibitory activity (good/moderate/poor), class in words

Chain of hBACE-1 (P56817 46-501): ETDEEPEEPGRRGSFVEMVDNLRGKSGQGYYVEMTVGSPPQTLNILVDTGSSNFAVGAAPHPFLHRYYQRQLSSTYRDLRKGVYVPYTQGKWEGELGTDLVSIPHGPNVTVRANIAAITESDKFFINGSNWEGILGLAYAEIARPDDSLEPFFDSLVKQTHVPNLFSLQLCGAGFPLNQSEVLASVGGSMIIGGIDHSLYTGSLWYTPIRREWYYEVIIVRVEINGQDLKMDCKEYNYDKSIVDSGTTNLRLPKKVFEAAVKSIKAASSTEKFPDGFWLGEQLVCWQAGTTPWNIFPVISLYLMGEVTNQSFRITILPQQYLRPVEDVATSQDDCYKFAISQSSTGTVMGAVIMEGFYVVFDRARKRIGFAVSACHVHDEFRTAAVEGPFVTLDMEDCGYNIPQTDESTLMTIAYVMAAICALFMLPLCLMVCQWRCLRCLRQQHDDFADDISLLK
Chain of hBChE (P81908 whole entry): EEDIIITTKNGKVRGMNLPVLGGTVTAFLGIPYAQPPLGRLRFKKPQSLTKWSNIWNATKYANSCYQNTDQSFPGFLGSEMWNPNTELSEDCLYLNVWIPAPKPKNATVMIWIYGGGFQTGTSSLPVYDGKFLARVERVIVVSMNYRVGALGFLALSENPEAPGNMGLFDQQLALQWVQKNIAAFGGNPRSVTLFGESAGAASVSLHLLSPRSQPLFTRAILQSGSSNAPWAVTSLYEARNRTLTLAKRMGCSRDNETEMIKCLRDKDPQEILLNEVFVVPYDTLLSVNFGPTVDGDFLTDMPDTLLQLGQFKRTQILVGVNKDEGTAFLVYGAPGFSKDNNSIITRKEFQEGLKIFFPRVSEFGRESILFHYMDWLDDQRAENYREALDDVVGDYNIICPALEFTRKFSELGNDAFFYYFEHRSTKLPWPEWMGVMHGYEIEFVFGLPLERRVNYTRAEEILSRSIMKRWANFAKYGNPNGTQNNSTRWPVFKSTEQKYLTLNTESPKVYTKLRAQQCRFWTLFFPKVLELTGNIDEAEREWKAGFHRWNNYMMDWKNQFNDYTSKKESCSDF

Row | SMILES | IC50 (hBACE-1; IC50 ± SEM hBACE-1, n = 3) [µM] | IC50 (hBChE) [µM] | IC50 (hAChE; IC50 ± SEM hAChE, n = 3) [µM] | IC50 (hAChE; [7]) [µM] | IC50 (hBACE-1) [µM] | other results
1 | S=c1oc(-c2cccc(Cl)c2)nn1CN1CCN(Cc2ccccc2)CC1 [SD-7, 3-((4-Benzylpiperazin-1-yl)methyl)-5-(3-chlorophenyl)-1,3,4-oxadiazole-2(3H)-thione] | 0.885 ± 0.013 | > 10 | 1.42 ± 0.022 | < 1 | – | –
2 | Oc1ccc(-c2nn(CN3CCN(Cc4ccccc4)CC3)c(=S)o2)cc1 [SD-10, 3-((4-Benzylpiperazin-1-yl)methyl)-5-(4-hydroxyphenyl)-1,3,4-oxadiazole-2(3H)-thione] | > 5 | > 10 | 1.22 ± 0.013 | 1 to 2 | – | –
3 | COc1ccc(-c2nn(CN3CCN(Cc4ccccc4)CC3)c(=S)o2)cc1 [SD-13, 3-((4-Benzylpiperazin-1-yl)methyl)-5-(4-methoxyphenyl)-1,3,4-oxadiazole-2(3H)-thione] | 1.358 ± 0.012 | > 10 | 1.53 ± 0.028 | 1 to 2 | 1 to 2.5 | –
4 | O=[N+]([O-])c1ccccc1-c1nn(CN2CCN(Cc3ccccc3)CC2)c(=S)o1 [SD-5, 3-((4-Benzylpiperazin-1-yl)methyl)-5-(2-nitrophenyl)-1,3,4-oxadiazole-2(3H)-thione] | 1.17 ± 0.021 | > 10 | 1.89 ± 0.031 | – | 1 to 2.5 | hAChE inhibitory activity (good/moderate/poor) (hAChE; class in words): moderate to poor
5 | S=c1oc(-c2ccc(Cl)cc2)nn1CN1CCN(Cc2ccccc2)CC1 [SD-1, 3-((4-Benzylpiperazin-1-yl)methyl)-5-(4-chlorophenyl)-1,3,4-oxadiazole-2(3H)-thione] | 0.943 ± 0.018 | > 10 | 1.26 ± 0.019 | 1 to 2 | – | –
6 | O=[N+]([O-])c1ccc(-c2nn(CN3CCN(Cc4ccccc4)CC3)c(=S)o2)cc1 [SD-2, 3-((4-Benzylpiperazin-1-yl)methyl)-5-(4-nitrophenyl)-1,3,4-oxadiazole-2(3H)-thione] | 0.811 ± 0.023 | > 10 | 1.107 ± 0.008 | 1 to 2 | – | –
7 | COc1cc2c(cc1OC)C(=O)C(CC1CCN(Cc3ccccc3)CC1)C2 (stereo not shown) [donepezil, reference compound] | – | – | – | – | – | % Aβ aggregation inhibition, self-induced (Aβ1–42): 21–37%; escape latency time (ELT) [1]: maximum decline in ELT; time spent in the platform zone [1]: significantly (^bp < 0.001) higher; total number of entries to the platform zone [1]: significantly (^bp < 0.001) different from the Aβ-treated animal group; % spontaneous alterations [2]: significant (^b,c,dp < 0.001) increase
8 | O=[N+]([O-])c1cc(-c2nn(CN3CCN(Cc4ccccc4)CC3)c(=S)o2)ccc1Cl [SD-14, 3-((4-Benzylpiperazin-1-yl)methyl)-5-(4-chloro-3-nitrophenyl)-1,3,4-oxadiazole-2(3H)-thione] | 0.806 ± 0.011 | 1.94 ± 0.033 | 1.14 ± 0.018 | 1 to 2 | – | PAS-AChE propidium iodide displacement (%) ([3]; [I] = 10 μM): 19.7% and 19.773 ± 1.216%; PAS-AChE propidium iodide displacement (%) ([3]; [I] = 50 μM): 36.8% and 36.841 ± 1.069%; Pe(exp) PAMPA–BBB [4]: 4.848 10^–6 cm/s; Papp (in vitro): 48.58 ± 0.16 nm/s; selectivity index hBChE/hAChE (hAChE): 1.710
9 | COc1cccc(-c2nn(CN3CCN(Cc4ccccc4)CC3)c(=S)o2)c1 [SD-12, 3-((4-Benzylpiperazin-1-yl)methyl)-5-(3-methoxyphenyl)-1,3,4-oxadiazole-2(3H)-thione] | 1.21 ± 0.016 | > 10 | 1.94 ± 0.024 | 1 to 2 | 1 to 2.5 | –
10 | S=c1oc(-c2ccccc2Br)nn1CN1CCN(Cc2ccccc2)CC1 [SD-16, 3-((4-Benzylpiperazin-1-yl)methyl)-5-(2-bromophenyl)-1,3,4-oxadiazole-2(3H)-thione] | 1.8 ± 0.029 | > 10 | 2.41 ± 0.027 | – | 1 to 2.5 | hAChE inhibitory activity (good/moderate/poor) (hAChE; class in words): moderate to poor
11 | S=c1oc(-c2ccc(Cl)cc2Cl)nn1CN1CCN(Cc2ccccc2)CC1 [SD-9, 3-((4-Benzylpiperazin-1-yl)methyl)-5-(2,4-dichlorophenyl)-1,3,4-oxadiazole-2(3H)-thione] | 1.41 ± 0.031 | > 10 | 2.11 ± 0.037 | – | 1 to 2.5 | hAChE inhibitory activity (good/moderate/poor) (hAChE; class in words): moderate to poor
12 | FC(F)(F)Oc1ccc(-c2nn(CN3CCN(Cc4ccccc4)CC3)c(=S)o2)cc1 [SD-3, 3-((4-Benzylpiperazin-1-yl)methyl)-5-(4-(trifluoromethoxy)phenyl)-1,3,4-oxadiazole-2(3H)-thione] | 1.11 ± 0.016 | > 10 | 1.335 ± 0.012 | 1 to 2 | 1 to 2.5 | –
13 | FC(F)(F)c1ccc(-c2nn(CN3CCN(Cc4ccccc4)CC3)c(=S)o2)cc1 [SD-8, 3-((4-Benzylpiperazin-1-yl)methyl)-5-(4-(trifluoromethyl)phenyl)-1,3,4-oxadiazole-2(3H)-thione] | 0.701 ± 0.019 | 2.42 ± 0.041 | 1.32 ± 0.018 | 1 to 2 | – | PAS-AChE propidium iodide displacement (%) ([3]; [I] = 10 μM): 21.446 ± 1.147%; PAS-AChE propidium iodide displacement (%) ([3]; [I] = 10 μM, listed as SD-08): 21.4%; PAS-AChE propidium iodide displacement (%) ([3]; [I] = 50 μM): 41.709 ± 1.271%; PAS-AChE propidium iodide displacement (%) ([3]; [I] = 50 μM, listed as SD-08): 41.7%; Pe(exp) PAMPA–BBB [4]: 5.019 10^–6 cm/s; Papp (in vitro): 50.19 ± 0.33 nm/s; selectivity index hBChE/hAChE (hAChE): 1.835
14 | Nc1ccc(-c2nn(CN3CCN(Cc4ccccc4)CC3)c(=S)o2)cc1 [SD-11, 5-(4-Aminophenyl)-3-((4-benzylpiperazin-1-yl)methyl)-1,3,4-oxadiazole-2(3H)-thione] | > 5 | > 10 | 1.22 ± 0.027 | 1 to 2 | – | –
15 | Oc1ccc(-c2nn(CN3CCN(Cc4ccccc4)CC3)c(=S)o2)c(O)c1 [SD-17, 3-((4-Benzylpiperazin-1-yl)methyl)-5-(2,4-dihydroxyphenyl)-1,3,4-oxadiazole-2(3H)-thione] | 2.15 ± 0.034 | > 10 | 1.792 ± 0.015 | – | 1 to 2.5 | hAChE inhibitory activity (good/moderate/poor) (hAChE; class in words): moderate to poor
16 | O=[N+]([O-])c1ccc(-c2nn(CN3CCN(Cc4ccccc4)CC3)c(=S)o2)c([N+](=O)[O-])c1 [SD-15, 3-((4-Benzylpiperazin-1-yl)methyl)-5-(2,4-dinitrophenyl)-1,3,4-oxadiazole-2(3H)-thione] | 1.45 ± 0.022 | > 10 | 1.42 ± 0.023 | – | 1 to 2.5 | hAChE inhibitory activity (good/moderate/poor) (hAChE; class in words): moderate to poor
17 | N#Cc1cccc(-c2nn(CN3CCN(Cc4ccccc4)CC3)c(=S)o2)c1 [SD-4, 3-(4-((4-Benzylpiperazin-1-yl)methyl)-5-thioxo-4,5-dihydro-1,3,4-oxadiazol-2-yl)benzonitrile] | 0.651 ± 0.014 | 1.65 ± 0.019 | 1.077 ± 0.009 | < 1 | – | neurotoxicity (MTT, cell population and morphology) [5]: non-neurotoxic; % Aβ aggregation inhibition, self-induced (Aβ1–42): 20–61%; PAS-AChE propidium iodide displacement (%) ([3]; [I] = 10 μM): 24.6% and 24.661 ± 1.421%; PAS-AChE propidium iodide displacement (%) ([3]; [I] = 50 μM): 55.1% and 55.157 ± 1.247%; % Aβ aggregation inhibition, hAChE-induced (Aβ1–42 with hAChE): 38–79%; Pe(exp) PAMPA–BBB [4]: 6.127 10^–6 cm/s; viability at 5 µM [6]: 59.1%; viability at 10 µM [6]: 71.6%; viability at 20 µM [6]: 82.5%; Papp (in vitro): 61.27 ± 0.19 nm/s; selectivity index hBChE/hAChE (hAChE): 1.534
